The values below come from ChEMBL document CHEMBL1148691, “Inhibitors of hepatitis C virus NS3.4A protease. Effect of P4 capping groups on inhibitory potency and pharmacokinetics” (Bioorg Med Chem Lett, 2007).

One data set relates to Plasma. Description: Drug level in CD1 mouse plasma at 50 mg/kg, po. The class given is ADME, organism-based. The following applies: in vivo. More on the design: dose 50 mg/kg, route oral.
`CCC[C@H](NC(=O)[C@@H]1C[C@@H]2CCCC[C@@H]2N1C(=O)[C@@H](NC(=O)[C@@H](NC(=O)c1ccc[nH]1)C1CCCCC1)C(C)(C)C)C(=O)C(=O)NC1CC1` came in with a concentration of 40 nM.
Compound `CCC[C@H](NC(=O)[C@@H]1[C@H]2CCC[C@H]2CN1C(=O)[C@@H](NC(=O)[C@@H](NC(=O)c1ncc[nH]1)C1CCCCC1)C(C)(C)C)C(=O)C(=O)NC1CC1` gave a concentration of 40 nM.

Target in a further data set: not listed separately
Put plainly: Inhibition of HCV NS3 4A protease. The arrangement: species or system Hepacivirus hominis.
Conditions: not given
`CCC[C@H](NC(=O)[C@@H]1C[C@@H]2CCCC[C@@H]2N1C(=O)[C@@H](NC(=O)[C@H](C1CCCCC1)N1C(=O)c2ccccc2C1=O)C(C)(C)C)C(=O)C(=O)NC1CC1`: the Ki was 370 nM.
Compound `CCC[C@H](NC(=O)[C@@H]1C[C@@H]2CCCC[C@@H]2N1C(=O)[C@@H](NC(=O)[C@@H](NC(=O)C(=O)NC1CC1)C1CCCCC1)C(C)(C)C)C(=O)C(=O)NC1CC1` yielded a Ki of 110 nM.
Same read-out and setting: then `CCC[C@H](NC(=O)[C@@H]1C[C@@H]2CCCC[C@@H]2N1C(=O)[C@@H](NC(=O)[C@@H](NC(=O)c1cccnc1)C1CCCCC1)C(C)(C)C)C(=O)C(=O)NC1CC1`, with 240 nM; and `CCC[C@H](NC(=O)[C@@H]1C[C@@H]2CCCC[C@@H]2N1C(=O)[C@@H](NC(=O)[C@@H](NC(=O)c1ccc[nH]1)C1CCCCC1)C(C)(C)C)C(=O)C(=O)NC1CC1`, with 90 nM.
`CCC[C@H](NC(=O)[C@@H]1[C@H]2CCC[C@H]2CN1C(=O)[C@@H](NC(=O)[C@@H](NC(=O)c1ncc[nH]1)C1CCCCC1)C(C)(C)C)C(=O)C(=O)NC1CC1` returned a Ki of 30 nM.

Tested on in the next data set: not listed separately
Description: Selectivity index, ratio of CC50 for Huh7cells to IC50 for HCV. The format is functional.
Conditions: not given
With `CCC[C@H](NC(=O)[C@@H]1C[C@@H]2CCCC[C@@H]2N1C(=O)[C@@H](NC(=O)[C@@H](NC(=O)C(=O)NC1CC1)C1CCCCC1)C(C)(C)C)C(=O)C(=O)NC1CC1`, the Selectivity index is greater than 375.
Take `CCC[C@H](NC(=O)[C@@H]1C[C@@H]2CCCC[C@@H]2N1C(=O)[C@@H](NC(=O)[C@@H](NC(=O)c1cccnc1)C1CCCCC1)C(C)(C)C)C(=O)C(=O)NC1CC1`: the Selectivity index was greater than 58.
`CCC[C@H](NC(=O)[C@@H]1C[C@@H]2CCCC[C@@H]2N1C(=O)[C@@H](NC(=O)[C@@H](NC(=O)c1ccc[nH]1)C1CCCCC1)C(C)(C)C)C(=O)C(=O)NC1CC1`: the Selectivity index is greater than 201.

Tested on in another data set: not listed separately
Description: Ratio of drug level in CD1 mouse liver to IC50 for HCV.
Conditions: not given
The format is functional, tissue-based.
Turning to `CCC[C@H](NC(=O)[C@@H]1C[C@@H]2CCCC[C@@H]2N1C(=O)[C@@H](NC(=O)[C@@H](NC(=O)c1ccc[nH]1)C1CCCCC1)C(C)(C)C)C(=O)C(=O)NC1CC1`, the Ratio was determined as 0.34.
The same measure, in the same setting: then `CCC[C@H](NC(=O)[C@@H]1[C@H]2CCC[C@H]2CN1C(=O)[C@@H](NC(=O)[C@@H](NC(=O)c1ncc[nH]1)C1CCCCC1)C(C)(C)C)C(=O)C(=O)NC1CC1`, with 52.

Tested on in a further data set: not listed separately
Description: Cytotoxicity against Huh7 cells by MTS assay. The format is cell-based, Huh-7. The settings on record: human.
Turning to `CCC[C@H](NC(=O)[C@@H]1C[C@@H]2CCCC[C@@H]2N1C(=O)[C@@H](NC(=O)[C@H](C1CCCCC1)N1C(=O)c2ccccc2C1=O)C(C)(C)C)C(=O)C(=O)NC1CC1`, the CC50 is greater than 100000 nM.
For `CCC[C@H](NC(=O)[C@@H]1C[C@@H]2CCCC[C@@H]2N1C(=O)[C@@H](NC(=O)[C@@H](NC(=O)C(=O)NC1CC1)C1CCCCC1)C(C)(C)C)C(=O)C(=O)NC1CC1`, the CC50 was greater than 100000 nM.
For the compound `CCC[C@H](NC(=O)[C@@H]1C[C@@H]2CCCC[C@@H]2N1C(=O)[C@@H](NC(=O)[C@@H](NC(=O)c1cccnc1)C1CCCCC1)C(C)(C)C)C(=O)C(=O)NC1CC1`, the CC50 is greater than 100000 nM.
Turning to `CCC[C@H](NC(=O)[C@@H]1C[C@@H]2CCCC[C@@H]2N1C(=O)[C@@H](NC(=O)[C@@H](NC(=O)c1ccc[nH]1)C1CCCCC1)C(C)(C)C)C(=O)C(=O)NC1CC1`, the CC50 is greater than 100000 nM.

In another data set the test system is Mus musculus. Put plainly: AUC(0 to 8 hrs) in CD1 mouse plasma at 50 mg/kg, po. The class given is ADME, organism-based. The arrangement: dose 50 mg/kg, route oral. The following applies: in vivo, 6 h.
The compound `CCC[C@H](NC(=O)[C@@H]1C[C@@H]2CCCC[C@@H]2N1C(=O)[C@@H](NC(=O)[C@@H](NC(=O)c1ccc[nH]1)C1CCCCC1)C(C)(C)C)C(=O)C(=O)NC1CC1` came in with an AUC of 0.36 µM·h.
On the same count and under the same terms, then `CCC[C@H](NC(=O)[C@@H]1[C@H]2CCC[C@H]2CN1C(=O)[C@@H](NC(=O)[C@@H](NC(=O)c1ncc[nH]1)C1CCCCC1)C(C)(C)C)C(=O)C(=O)NC1CC1`, with 0.36 µM·h.

In the next data set the test system is Hepatitis C virus. Put plainly: Inhibition of HCV replicon RNA production in HUh7 cells. The class given is functional, organism-based, Hepacivirus hominis. The settings on record: Huh-7.
For the compound `CCC[C@H](NC(=O)[C@@H]1C[C@@H]2CCCC[C@@H]2N1C(=O)[C@@H](NC(=O)[C@H](C1CCCCC1)N1C(=O)c2ccccc2C1=O)C(C)(C)C)C(=O)C(=O)NC1CC1`, the IC50 is greater than 3000 nM.
Turning to `CCC[C@H](NC(=O)[C@@H]1C[C@@H]2CCCC[C@@H]2N1C(=O)[C@@H](NC(=O)[C@@H](NC(=O)C(=O)NC1CC1)C1CCCCC1)C(C)(C)C)C(=O)C(=O)NC1CC1`, the IC50 is 270 nM.
Same read-out and setting: as for `CCC[C@H](NC(=O)[C@@H]1C[C@@H]2CCCC[C@@H]2N1C(=O)[C@@H](NC(=O)[C@@H](NC(=O)c1cccnc1)C1CCCCC1)C(C)(C)C)C(=O)C(=O)NC1CC1`, the figure is 1700 nM; as for `CCC[C@H](NC(=O)[C@@H]1C[C@@H]2CCCC[C@@H]2N1C(=O)[C@@H](NC(=O)[C@@H](NC(=O)c1ccc[nH]1)C1CCCCC1)C(C)(C)C)C(=O)C(=O)NC1CC1`, 500 nM; as for `CCC[C@H](NC(=O)[C@@H]1[C@H]2CCC[C@H]2CN1C(=O)[C@@H](NC(=O)[C@@H](NC(=O)c1ncc[nH]1)C1CCCCC1)C(C)(C)C)C(=O)C(=O)NC1CC1`, 200 nM.

A further data set relates to Liver. Description: Drug level in CD1 mouse liver at 50 mg/kg, po. The class given is ADME, organism-based. The arrangement: dose 50 mg/kg, route oral. The settings on record: in vivo, read-out: Activity.
Consider `CCC[C@H](NC(=O)[C@@H]1C[C@@H]2CCCC[C@@H]2N1C(=O)[C@@H](NC(=O)[C@@H](NC(=O)c1ccc[nH]1)C1CCCCC1)C(C)(C)C)C(=O)C(=O)NC1CC1`, for which the concentration worked out at 170 nM.
On the same count and under the same terms, then `CCC[C@H](NC(=O)[C@@H]1[C@H]2CCC[C@H]2CN1C(=O)[C@@H](NC(=O)[C@@H](NC(=O)c1ncc[nH]1)C1CCCCC1)C(C)(C)C)C(=O)C(=O)NC1CC1`, with 1300 nM.

The test system of another data set is Mus musculus. Put plainly: AUC(0 to 8 hrs) in CD1 mouse liver at 50 mg/kg, po. The format is ADME, organism-based. More on the design: dose 50 mg/kg, route oral. The following applies: in vivo, 6 h.
For the compound `CCC[C@H](NC(=O)[C@@H]1C[C@@H]2CCCC[C@@H]2N1C(=O)[C@@H](NC(=O)[C@@H](NC(=O)c1ccc[nH]1)C1CCCCC1)C(C)(C)C)C(=O)C(=O)NC1CC1`, the AUC stood at 1.3 µM·h.
For `CCC[C@H](NC(=O)[C@@H]1[C@H]2CCC[C@H]2CN1C(=O)[C@@H](NC(=O)[C@@H](NC(=O)c1ncc[nH]1)C1CCCCC1)C(C)(C)C)C(=O)C(=O)NC1CC1`, the AUC amounted to 10.5 µM·h.
